Data reported in PubChem BioAssay (NCI).
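Cultured in 96-well plates, cells were exposed to test compound for 48 hours across five concentrations. TGI denotes the concentration required for complete inhibition of growth.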

Key:
Assay in all cases: growth of human tumour cells (NCI), 48 h
[1] = test system: NCI-H23 lung
[2] = test system: ACHN renal
[3] = test system: SK-OV-3 ovarian
[4] = test system: SF-539 CNS
[5] = test system: CCRF-CEM leukemia
[6] = test system: SF-268 CNS
[7] = test system: SK-MEL-5 melanoma
[8] = test system: HCT-15 colon
[9] = test system: SK-MEL-2 melanoma
[10] = test system: MDA-MB-435

Row | Structure (SMILES) | TGI [1] [µM] | TGI [2] [µM] | TGI [3] [µM] | TGI [4] [µM] | TGI [5] [µM] | TGI [6] [µM] | TGI [7] [µM] | TGI [8] [µM] | TGI [9] [µM] | TGI [10] [µM]
1 | COC(=O)CC(=O)OC1C[C@@H]2CCC3C(C)(C)CCC[C@]3(C)C23CC[C@@]1(C)C3 (stereo partly drawn) | 33.5 | 31.7 | 52.4 | 39.1 | > 100 | 35.9 | 31.7 | 36.1 |  | 
2 | COc1ccc(Cl)cc1NC(=O)O/N=C(\Cl)C(C)C | 47.7 | 4.21 | 34.7 | 29.4 | > 29.7 | 47.4 | > 44.5 |  | 33.9 | 47.6
3 | N#C/C(=C/c1ccc([N+](=O)[O-])o1)c1ccccc1 | > 100 | > 100 | > 100 | > 100 | > 100 | > 100 | > 100 |  | > 100 | 
4 | O=C1c2cccc3cc([N+](=O)[O-])cc(c23)C(=O)N1c1ccc(OCCN2CCCC2)cc1 | 39.7 | 28.1 |  | 29.5 | 73.5 | > 100 | 30.1 | 44.5 | 54.3 | 45.1
5 | Clc1ccc(Cc2nc3cc(Cl)c(Cl)cc3n2CC2CCCN3CCCCC23)cc1 (stereo not drawn) |  | 22.2 | 32.8 | 22.3 |  | 22.3 | 23.3 | 23.3 | 29.8 | 40.4
6 | CC(=O)N(C(=O)CC(=O)N1N=C(C)C(N=Nc2cccc([N+](=O)[O-])c2)C1=O)c1ccc(Cl)cc1 (stereo not drawn) | > 10 | > 10 | > 10 | > 10 | > 10 | > 10 | > 10 | > 10 |  | > 10
7 | COC(=O)[C@@H]1CN(C(=O)Cc2ccccc2)C(=O)N1 | > 100 | > 100 |  | > 100 | > 100 | > 100 | > 100 |  |  | > 100
8 | CC1(C)OCC(/C=C\C(O)CC2(C)OCCO2)CO1 (stereo not drawn) |  | > 100 | > 100 | > 100 |  | > 100 | > 100 | > 100 | > 100 | > 100
9 | COc1ccc(/C=C(\C#N)c2ccccn2)cc1OC | > 100 | > 100 | > 100 | > 100 | > 100 | > 100 | > 100 | > 100 | > 100 | 
10 | CCOC(=O)c1c(N2CCN(C)CC2)[nH]c(=O)c(C(c2c(Cl)cccc2Cl)c2c(O)c(C(=O)OCC)c(N3CCN(C)CC3)[nH]c2=O)c1O | > 100 | 42.8 |  | 39.5 | > 100 | 56.5 | 40.1 | 97.7 | 53.2 | 57.9
11 | O=C(NCC(O)COc1ccccc1)c1ccccc1O (stereo not drawn) | > 100 | > 100 | > 100 | > 100 | > 100 |  | > 100 | > 100 | > 100 | > 100
12 | O=C1CCNC/C1=C\c1ccccc1 | 34.4 | 78 | > 100 | 42.3 |  | 45 | 40.2 | 50.1 | > 100 | 
13 | O=S(c1ccc(O)cc1)c1ccc(O)cc1 | > 100 |  | > 100 | > 100 | > 100 | > 100 | > 100 | > 100 | > 100 | 
14 | O=c1[nH]nc(-c2cccc([N+](=O)[O-])c2)[nH]1 | > 100 | > 100 |  | > 100 | > 100 | > 100 |  | > 100 | > 100 | > 100
15 | CCCC(O)c1ccc2[nH]c3c(C)cc([N+](=O)[O-])c(C)c3c2c1 (stereo not drawn) | > 100 | > 100 |  | > 100 | > 100 | > 100 | > 100 | > 100 | > 100 | 
16 | O=C(O)c1ccccc1Sc1ccc(C=C2NC(=S)N(c3ccccc3)C2=O)s1 | > 100 | > 100 |  |  |  | > 100 | > 100 | > 100 | > 100 | > 100
17 | COc1ccc(N2C(=O)[C@@H]3[C@@H]4CC(C)CC[C@@H]4c4c([nH]c5ccccc45)[C@@H]3C2=O)cc1 (stereo partly drawn) | > 47.5 | 26.9 | 22.8 | 25.9 | > 100 | 37.9 | > 100 | > 50.2 | 28.5 | 
18 | O=C1CC2(CCN(Cc3ccccc3)CC2)C(=O)N1N1CCCCC1 | > 100 | > 100 | > 100 | > 100 |  | > 100 | > 100 | > 100 | > 100 | > 100
19 | COC(OC)c1cccc2c1C(=O)CCC1(CC2)OCCCCO1 | > 100 | > 100 | > 100 | > 100 | > 100 | > 100 | > 100 | > 100 | > 100 | 
20 | CC(NC(CC12CC3CC(CC(C3)C1)C2)C(N)=O)c1ccccc1 (stereo not drawn) |  | 57.6 | > 100 |  | 41.9 | 61.2 | 26.3 | > 100 |  | 41.1
21 | c1ccc(-c2cc(-c3ccccc3)nc(-c3ccncc3)c2)cc1 | > 100 | > 100 | > 100 |  | > 100 | > 100 | > 100 | > 100 | > 100 | > 100
22 | COc1ccc(C(CC(=O)c2cccs2)C(=O)c2ccc3c(c2)OCO3)cc1 (stereo not drawn) | > 100 | > 100 | > 100 | > 100 | > 100 | > 100 | > 100 | > 100 |  | > 100
23 | COC1=CC(=O)C2(C=C1OC)OC[C@H]1Oc3c(ccc4c3C=CC(C)(C)O4)C(=O)[C@H]12 (stereo partly drawn) | 95.3 | > 100 | > 100 | > 100 | > 100 |  |  |  | > 100 | 
24 | CN1C/C(=C\c2ccccc2)C2=NN(C(N)=S)[C@H](c3ccccc3)[C@@H]2C1 | > 100 | > 100 | > 100 | > 100 | > 100 | > 100 |  | > 100 | > 100 | 
